Read-outs that look alike come from different tables or passages of the source.
Tested on: modified Shay rat
Test: Antiulcerogenic and secretion-inhibiting action on the modified Shay rat (pylorus ligature plus oral acetylsalicylic acid)
Format: in vivo
Conditions: for Inhibition of acid secretion: Reduction in HCl secretion / Protective action on stomach: Reduction in lesion index: 4 hours; for ED50: Rattus norvegicus, 4 h, i.d.
Procedure: Ulcers are provoked in rats which have fasted for 24 hours (female, 180-200 g, 4 animals per cage on high grid) by pylorus ligature (under diethyl ether anaesthesia) and oral administration of 100 mg/10 ml/kg acetylsalicylic acid. The substances to be tested are administered intraduodenally (2,5 ml/kg) immediately following t[e pylorus ligature. The wound is closed by means of Michel clamps. 4 hours later, the animals are sacrificed under ether anaesthesia by atlas dislocation and the stomach is resected. The stomach is opened along the greater curvature and clamped on a cork sheet after first determining the amount of secreted gastric juice (volume) and subsequently its HCl content (titration with sodium hydroxide solution). Using a stereomicroscope at 10×magnification, the number and size (=diameter) of ulcers present are determined. The product of severity (according to the scale of points below) and number of ulcers serves as an individual lesion index. |Scale of points: | No ulcers 0 | Ulcer diameter | 0.1-1.4 mm | 1 | 1.5-2.4 mm | 2 | 2.5-3.4 mm | 3 | 3.5-4.4 mm | 4 | 4.5-5.4 mm | 5 | >5.5 mm 6 The reduction in the mean lesion index of each treated group compared with the control group (=100%) serves as a measure of the antiulcerogenic effect. The ED50 designates the dose which reduces the mean lesion index or the HCl secretion by 50% compared with the control.

[1] = 0.3 μmol/kg i.d. (intraduodenal)
[2] = 1.0 μmol/kg i.d. (intraduodenal)
[3] = 3.0 μmol/kg i.d. (intraduodenal)
[4] = 10.0 μmol/kg i.d. (intraduodenal)
[5] = 30.0 μmol/kg i.d. (intraduodenal)
[6] = dose (interpolated) which reduces the HCl secretion by 50% compared with control group, read-out: Inhibition of acid secretion: Approx. ED50
[7] = dose (interpolated) which reduces the lesion index by 50% compared with control group, read-out: Protective action on stomach: Approx. ED50
[8] = 0.6 μmol/kg i.d. (intraduodenal)
[9] = 1.5 μmol/kg i.d. (intraduodenal)
[10] = 2.0 μmol/kg i.d. (intraduodenal)
[11] = 6.0 μmol/kg i.d. (intraduodenal)
[12] = 0.1 μmol/kg i.d. (intraduodenal)

SMILES: Cc1nc2c(O[C@@H]3c4ccccc4C[C@H]3O)cccn2c1C (relative stereo) [Example 2]
- Inhibition of acid secretion: Reduction in HCl secretion [1]: -20%
- Protective action on stomach: Reduction in lesion index [1]: 25%
- Inhibition of acid secretion: Reduction in HCl secretion [2]: 23%
- Protective action on stomach: Reduction in lesion index [2]: 47%
- Inhibition of acid secretion: Reduction in HCl secretion [3]: 52%
- Protective action on stomach: Reduction in lesion index [3]: 81%
- Inhibition of acid secretion: Reduction in HCl secretion [4]: 47%
- Protective action on stomach: Reduction in lesion index [4]: 94%
- Inhibition of acid secretion: Reduction in HCl secretion [5]: 95%
- Protective action on stomach: Reduction in lesion index [5]: 100%
- ED50 [6]: ~4.27 µmol/kg
- ED50 [7]: ~0.84 µmol/kg

SMILES: Cc1nc2c(O[C@@H]3c4ccccc4C[C@H]3O)cccn2c1CC#N (relative stereo) [Example 4, 3-cyanomethyl-8-(2-(trans)-hydroxy-2,3-dihydro-1-indenyloxy)-2-methyl-imidazo[1,2-a]pyridine]
- Inhibition of acid secretion: Reduction in HCl secretion [1]: -26%
- Protective action on stomach: Reduction in lesion index [1]: 18%
- Inhibition of acid secretion: Reduction in HCl secretion [8]: 12%
- Protective action on stomach: Reduction in lesion index [8]: 33%
- Inhibition of acid secretion: Reduction in HCl secretion [2]: 22%
- Protective action on stomach: Reduction in lesion index [2]: 35%
- Inhibition of acid secretion: Reduction in HCl secretion [9]: 50%
- Protective action on stomach: Reduction in lesion index [9]: 94%
- Inhibition of acid secretion: Reduction in HCl secretion [10]: 51%
- Protective action on stomach: Reduction in lesion index [10]: 98%
- Inhibition of acid secretion: Reduction in HCl secretion [3]: 63%
- Protective action on stomach: Reduction in lesion index [3]: 93%
- Inhibition of acid secretion: Reduction in HCl secretion [11]: 73%
- Protective action on stomach: Reduction in lesion index [11]: 100%
- Inhibition of acid secretion: Reduction in HCl secretion [5]: 99%
- Protective action on stomach: Reduction in lesion index [5]: 100%
- ED50 [6]: ~1.95 µmol/kg
- ED50 [7]: ~1.04 µmol/kg

SMILES: Cc1nc2c(O[C@@H]3c4ccccc4C[C@H]3O)cccn2c1CO (relative stereo) [Example 8, 3-hydroxymethyl-8-(2-(trans)-hydroxy-2,3-dihydro-1-indenyloxy)-2-methyl-imidazo[1,2-a]pyridine]
- Inhibition of acid secretion: Reduction in HCl secretion [12]: 10%
- Protective action on stomach: Reduction in lesion index [12]: 13%
- Inhibition of acid secretion: Reduction in HCl secretion [1]: 19%
- Protective action on stomach: Reduction in lesion index [1]: 43%
- Inhibition of acid secretion: Reduction in HCl secretion [2]: 25%
- Protective action on stomach: Reduction in lesion index [2]: 47%
- Inhibition of acid secretion: Reduction in HCl secretion [3]: 20%
- Protective action on stomach: Reduction in lesion index [3]: 74%
- Inhibition of acid secretion: Reduction in HCl secretion [4]: 35%
- Protective action on stomach: Reduction in lesion index [4]: 94%
- Inhibition of acid secretion: Reduction in HCl secretion [5]: 98%
- Protective action on stomach: Reduction in lesion index [5]: 100%
- ED50 [6]: ~12.9 µmol/kg
- ED50 [7]: ~0.69 µmol/kg

SMILES: Cc1nc2c(O[C@@H]3c4ccccc4C[C@H]3O)cccn2c1N.Cl (relative stereo) [Example 11, 3-amino-8-(2-(trans)-hydroxy-2,3-dihydro-1-indenyloxy)-2-methyl-imidazo[1,2-a]pyridine-hydrochloride]
- Inhibition of acid secretion: Reduction in HCl secretion [2]: 16%
- Protective action on stomach: Reduction in lesion index [2]: 27%
- Inhibition of acid secretion: Reduction in HCl secretion [3]: 32%
- Protective action on stomach: Reduction in lesion index [3]: 71%
- Inhibition of acid secretion: Reduction in HCl secretion [4]: 67%
- Protective action on stomach: Reduction in lesion index [4]: 100%
- ED50 [6]: ~6.02 µmol/kg
- ED50 [7]: ~1.69 µmol/kg

SMILES: Cc1nc2c(O[C@@H]3c4ccc(F)cc4C[C@H]3O)cccn2c1CO (relative stereo) [Example 30, 8-(5-fluoro-2-(trans)-hydroxy-2,3-dihydro-1-indenyloxy)-3-hydroxymethyl-2-methyl-imidazo[1,2-a]pyridine]
- Inhibition of acid secretion: Reduction in HCl secretion [3]: 41%
- Protective action on stomach: Reduction in lesion index [3]: 86%

Reference: patent US5112834A, “Imidazole protectorant for the stomach and intestine” (BYK Gulden Lomberg Chemische Fabrik GmbH, priority 1987, dated 1992)
